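GI50 = concentration required for 50% inhibition of growth. TGI: total growth inhibition.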
Legend:
Experiment in all cases: NCI-60 cell line screen, 384-well format
[1] = tested on: TK-10 renal
[2] = tested on: SK-MEL-2 melanoma
[3] = tested on: HCT-15 colon
[4] = tested on: 786-0 renal
[5] = tested on: RPMI-8226 leukemia
[6] = tested on: UO-31 renal
[7] = tested on: A498 renal
[8] = tested on: MDA-MB-468 breast
[9] = tested on: NCI/ADR-RES ovarian
[10] = tested on: HL-60(TB) leukemia
[11] = tested on: ACHN renal
[12] = tested on: MCF7 breast
[13] = tested on: SR leukemia
[14] = tested on: UACC-62 melanoma
[15] = tested on: MOLT-4 leukemia
[16] = tested on: NCI-H23 lung
[17] = tested on: SF-295 CNS

For `Cc1c(-c2c(-c3ccc(F)o3)sc3ncnc(O[C@H](Cc4ccccc4OCc4ccnn4CC(F)(F)F)C(=O)O)c23)ccc(OCCN2CCN(C)CC2)c1Cl`, the GI50 [1] was 3.27 µM, the TGI [1] was 8.77 µM and the GI50 [2] was under 0.01 µM. It also gave a TGI [2] of under 0.01 µM, a GI50 [3] of 10.4 µM and a TGI [3] of 22.2 µM. For the same compound, the GI50 [4] was 2.11 µM, the TGI [4] was 4.5 µM and the GI50 [5] was under 0.01 µM. It also gave a TGI [5] of under 0.01 µM, a GI50 [6] of 15.6 µM and a TGI [6] of 29.1 µM. The GI50 [7] was 3.34 µM, the TGI [7] was 9.93 µM and the GI50 [8] was under 0.01 µM. For the same compound, the TGI [8] was under 0.01 µM, the GI50 [9] was 27.4 µM and the TGI [9] was 95.7 µM. The GI50 [10] was under 0.01 µM, the TGI [10] was under 0.01 µM and the GI50 [11] was 6.94 µM. For the same compound, the TGI [11] was 18.8 µM, the GI50 [12] was under 0.01 µM and the TGI [12] was 1.18 µM. The GI50 [13] was under 0.01 µM, the TGI [13] was under 0.01 µM and the GI50 [14] was under 0.01 µM. The TGI [14] was 0.0102 µM, the GI50 [15] was under 0.01 µM and the TGI [15] was under 0.01 µM. It also gave a GI50 [16] of 0.0113 µM, a TGI [16] of 0.0318 µM and a GI50 [17] of 1.66 µM. It also gave a TGI [17] of 3.06 µM.
